Results from patent US11806344B2, “Pharmaceutical composition comprising mineralocorticoid receptor antagonist and use thereof” (priority 2016, dated 2023).
Entries after “also recorded” stand apart in the source; their conditions may differ. Where two headings read alike, the source gives them in different places.

Tests used:
[1] = 13-week toxicity and pharmacokinetic study in SD rats with 4-week recovery (Example 5); format: in vivo; details: rat, in vivo; for AUC(0-t): SD, po, read-out: AUC0-24 h; for NOAEL at 13 weeks: oral, read-out: NOAEL (no observed adverse effect level)
Experimental: (§1) Sample to test: Solid dispersion of Compound I (Compound I:PVPK30=1:8 (w/w))
(§2) Animals: SD Rats, SPF Level.
(§3) Two hundred and twenty SD rats were used in the studies. Three groups, i.e., high dose group, intermediate dose group and low dose group, were administered with Compound I with following doses, 20 males and 20 females for each group. In specific, male animals were given the suspension at the doses of 3, 9 and 30 mg/kg/day, respectively, while the females were administered at the doses of 1, 3, and 10 mg/kg/day, respectively. The animals in the control group, 20 males and 20 females, were given purified water. All animals fasted overnight before blood collections and anatomical examinations.
(§4) In addition, for the pharmacokinetic study, 9 males and 9 females were assigned into the administration group, while 3 males and 3 females were for the control group.

SD rats = experiment: as above; format: in vivo; details: 13 weeks
Experimental: as §1, §2, §3, §4

[2] = Water solubility and permeation of Compound I (statement); format: physicochemical
[3] = Safety, tolerability and pharmacokinetics in healthy subjects, single dose (Example 7); format: in vivo, human; details: human, plasma, oral
Experimental: (§5) Five groups of healthy subjects were given capsules at doses of 0.5 mg (1 capsule, 0.5 mg of Compound I per capsule), 1.0 mg (2 capsules, 0.5 mg of Compound I per capsule), 2.5 mg (1 capsule, 2.5 mg of Compound I per capsule), 10 mg (1 capsule, 10 mg of Compound I per capsule), and 30 mg (3 capsules, 10 mg of Compound I per capsule), each group containing 8 subjects. The drug administration was done only once.
(§6) The capsules mentioned above were the ones prepared in Example 2, i.e., the capsules of Capsule formulation 3 (0.5 mg of Compound I per capsule), Capsule formulation 4 (2.5 mg of Compound I per capsule), and Capsule formulation 5 (10 mg of Compound I per capsule).
(§7) Plasma samples were collected to measure plasma drug concentration, and the pharmacokinetic parameters were analyzed using the non-compartment model. Serum samples were collected to measure serum potassium levels.

healthy subjects [4] = experiment: as above; format: in vivo, human; details: single dose 0.5 to 30 mg/day
Experimental: as §5, §6, §7

[5] = tested on: Dahl/ss rats with salt induced renal injury; experiment: Efficacy test in salt-sensitive rats with salt induced renal injury (Example 6); format: in vivo; details: Dahl/ss rats on 4% NaCl diet
Experimental: Animals: Male Dahl/Ss Rats
Solid dispersions of Compound I (Compound I:PVPK30=1:8 (w/w)): Solid dispersions of Compound I was formulated with suitable amount of sterile water for injection into suspensions having concentrations of 0.03, 0.10, 0.30 and 1.00 mg/mL, respectively. The suspensions were prepared immediately before use. […]
One week before the experiment, the blood pressures were measured twice in rats by the tail-cuff blood pressure measurement so that rats could accommodate to the blood pressure monitoring operation. Then, immediately before the test, the blood pressure was determined and used as the baseline value. […]
Blood pressure (systolic blood pressure, SBP) measurement: Blood pressure was measured for 6 weeks, once a week, and the blood pressure changes in these groups were analyzed.
Pathological examination for the kidney and heart: At the end of the study, rats were sacrificed painlessly, from which bilateral kidneys and the heart were collected for histopathological analysis. The kidneys were stained using Hematoxylin-Eosin (HE) to semi-quantitatively evaluate renal injuries. The thickness of the left ventricular wall was measured for each heart to analyze the heart injury. […]

[6] = Safety, tolerability and pharmacokinetics in healthy subjects, multiple doses (Example 8); format: in vivo, human; details: human, plasma, oral, healthy subjects, 14 days, read-out: average steady-state AUC0-24 (AUCtau)
Experimental: (§8) Two groups of healthy subjects were given capsules once a day at daily doses of 2.5 mg (1 capsule for each administration, 2.5 mg of Compound I per capsule), and 5.0 mg (2 capsules for each administration, 2.5 mg of Compound I per capsule), respectively, each group containing 6 subjects. The administration continued for 14 consecutive days. The capsules used in this study were of Capsule formulation 4 prepared in Example 2.
as §7

healthy subjects [7] = experiment: as above; format: in vivo, human; details: for average steady-state AUC0-24 (AUCtau): 14 days
Experimental: as §8, §7

[8] = healthy subjects, multiple doses 2.5 mg/day

Q: What does the source list for `N#Cc1ccc(N2N=C3c4ccc(C(=O)N5CCC(O)CC5)nc4CC[C@@H]3[C@@H]2C2CCCC2)cc1Cl` [Compound I, 2-chloro-4-[(3S,3aR)-3-cyclopentyl-7-(4-hydroxylpiperidine-1-carbonyl)-3,3a,4,5-tetrahydro-2H-pyrazolo[3,4-f]quinolin-2-yl]benzonitrile]?
A: AUC(0-t) ([1]; female, 1 mg/kg/day, female SD rats, 1 mg/kg/day intragastric, 13 weeks): 4080 ng·h/mL; AUC(0-t) ([1]; female, 3 mg/kg/day, female SD rats, 3 mg/kg/day intragastric, 13 weeks): 15500 ng·h/mL; AUC(0-t) ([1]; female, 10 mg/kg/day, female SD rats, 10 mg/kg/day intragastric, 13 weeks): 43600 ng·h/mL; AUC(0-t) ([1]; male, 3 mg/kg/day, male SD rats, 3 mg/kg/day intragastric, 13 weeks): 5430 ng·h/mL; AUC(0-t) ([1]; male, 9 mg/kg/day, male SD rats, 9 mg/kg/day intragastric, 13 weeks): 16500 ng·h/mL; AUC(0-t) ([1]; male, 30 mg/kg/day, male SD rats, 30 mg/kg/day intragastric, 13 weeks (steady-state)): 49900 ng·h/mL; NOAEL at 13 weeks ([1]; female SD rats, 13 weeks): 10 mg/kg/day; NOAEL at 13 weeks ([1]; male SD rats, 13 weeks): 30 mg/kg/day; serum potassium level (observation) (SD rats; SD rats, high dose/NOAEL (male 30, female 10 mg/kg/day)): no obvious abnormal serum potassium level was observed; also recorded: serum potassium level was not elevated; K+ (Mean ± SD) (SD rats; female SD rats, 1 mg/kg/day intragastric): 4.4 ± 0.4 mmol/L; K+ (Mean ± SD) (SD rats; female SD rats, 3 mg/kg/day intragastric): 4.4 ± 0.3 mmol/L; K+ (Mean ± SD) (SD rats; female SD rats, 10 mg/kg/day intragastric): 4.5 ± 0.2 mmol/L; K+ (Mean ± SD) (SD rats; male SD rats, 3 mg/kg/day intragastric): 5.0 ± 0.3 mmol/L; K+ (Mean ± SD) (SD rats; male SD rats, 9 mg/kg/day intragastric): 5.0 ± 0.3 mmol/L; K+ (Mean ± SD) (SD rats; male SD rats, 30 mg/kg/day intragastric): 5.1 ± 0.2 mmol/L; side effects (observation) (SD rats; male SD rats, high dose 30 mg/kg/day): No obvious side effect was observed; permeation rate [2]: medium; solubility in water [2]: insoluble in water; half-life ([3]; single dose 0.5 mg): 61.5 h; AUC(0-t) ([3]; single dose 0.5 mg capsule, read-out: AUC0-24): 162 ng·h/mL; half-life ([3]; single dose 1.0 mg): 60.9 h; AUC(0-t) ([3]; single dose 1.0 mg capsules, read-out: AUC0-24): 397 ng·h/mL; half-life ([3]; single dose 2.5 mg): 53.3 h; AUC(0-t) ([3]; single dose 2.5 mg capsule, read-out: AUC0-24): 640 ng·h/mL; half-life ([3]; single dose 10 mg): 52.8 h; AUC(0-t) ([3]; single dose 10 mg capsule, read-out: AUC0-24): 3080 ng·h/mL; half-life ([3]; single dose 30 mg): 73.9 h; AUC(0-t) ([3]; single dose 30 mg capsules, read-out: AUC0-24): 5020 ng·h/mL; half-life ([3]; single dose 0.5 to 30 mg/day): ~60 h; AUC(0-t) ([3]; single dose 0.5 to 30 mg/day, read-out: AUC0-24 (range over dose groups)): 162 to 5020 ng·h/mL; serum potassium level (observation) (healthy subjects [4]): no elevated serum potassium level was observed; AUC0-24 at which the drug takes effect (undulation point of SBP or UACR vs AUC0-24 curve) ([5]; 0.3-10 mg/kg/day intragastric twice a day, 42 days): 100 ng·h/mL; SBP and UACR change (observation) ([5]; beyond AUC of 100 h*ng/mL): SBP and UACR were significantly decreased; AUC(0-t) ([6]; 2.5 mg/day, multiple doses 2.5 mg/day): 2860 ± 821 ng·h/mL; AUC(0-t) ([6]; 5 mg/day, multiple doses 5.0 mg/day): 6380 ± 1030 ng·h/mL; serum potassium level (observation) (healthy subjects [7]; healthy subjects (6), multiple doses 5.0 mg/day): transient elevated serum potassium level observed in three subjects; also recorded: elevated serum potassium levels were observed in 3 subjects but were transient; serum potassium level (observation) (healthy subjects [7]; [8]): no elevated serum potassium level observed; also recorded: elevated serum potassium levels were not observed; average steady-state AUC0-24 (AUCtau) (healthy subjects [7]; [8]): 2863 ± 822 ng·h/mL; average steady-state AUC0-24 (AUCtau) (healthy subjects [7]; healthy subjects, multiple doses 5.0 mg/day): 6373 ± 1026 ng·h/mL; AUC individual variation: highest AUC vs lowest AUC subject (healthy subjects [7]; healthy volunteers, capsule, multiple doses 2.5 mg daily): 2.37 times
